Test system: ERK
Experiment: p-ERK levels in primary hepatocytes (FIG. 21A)
Format: cell-based, mouse
Conditions: primary hepatocytes treated overnight
From the text: Subsequently, cells were lysed and protein extracts were immunoblotted with the indicated antibodies. […] Quantitative PCR (qPCR) of TFEB target genes in primary hepatocytes from control (flox/flox) and Tcfeb−/− (flox/flox; alb-Cre) mice. […] The expression levels are shown as % increased expression of the treated versus the corresponding untreated samples. Values represent means±s.d. of three independent hepatocyte preparations (three mice/genotype). Student's t-test (two tailed) *P-value ≦0.05.

CCC(=O)N1CCN(c2ccc(-n3c(=O)ccc4cnc5ccc(-c6cnc7ccccc7c6)cc5c43)cc2C(F)(F)F)CC1 [TORIN 1]
levels of p-ERK: unaffected

Reference: patent publication US20140038920A1, “TFEB PHOSPHORYLATION INHIBITORS AND USES THEREOF” (FONDAZIONE TELETHON, priority 2011, published 2014)
